Measured values as given in patent publication US8734852B2, “Parenteral controlled release formulations of NSAID's” (priority 2011, dated 2014).

Key:
[1] = tested on: interleukin1b-induced prostaglandin E2 production; settings: cited from earlier work
[2] = upon dissolution in solvents; cited from earlier work
[3] = cited from earlier work
COX-I = COX-I (Homo sapiens, UniProt P23219); settings: oral form; cited from earlier work
[4] = aqueous formulation; cited from earlier work
Acute Lumbago patients = assay: Randomized comparative open labeled multicentric trial in Acute Lumbago (Phase III, 300 patients); format: in vivo, human; settings: at 8 hrs, 24 hrs and after 48 hrs of treatment; p<0.05

Sequence of COX-I (P23219 24-599): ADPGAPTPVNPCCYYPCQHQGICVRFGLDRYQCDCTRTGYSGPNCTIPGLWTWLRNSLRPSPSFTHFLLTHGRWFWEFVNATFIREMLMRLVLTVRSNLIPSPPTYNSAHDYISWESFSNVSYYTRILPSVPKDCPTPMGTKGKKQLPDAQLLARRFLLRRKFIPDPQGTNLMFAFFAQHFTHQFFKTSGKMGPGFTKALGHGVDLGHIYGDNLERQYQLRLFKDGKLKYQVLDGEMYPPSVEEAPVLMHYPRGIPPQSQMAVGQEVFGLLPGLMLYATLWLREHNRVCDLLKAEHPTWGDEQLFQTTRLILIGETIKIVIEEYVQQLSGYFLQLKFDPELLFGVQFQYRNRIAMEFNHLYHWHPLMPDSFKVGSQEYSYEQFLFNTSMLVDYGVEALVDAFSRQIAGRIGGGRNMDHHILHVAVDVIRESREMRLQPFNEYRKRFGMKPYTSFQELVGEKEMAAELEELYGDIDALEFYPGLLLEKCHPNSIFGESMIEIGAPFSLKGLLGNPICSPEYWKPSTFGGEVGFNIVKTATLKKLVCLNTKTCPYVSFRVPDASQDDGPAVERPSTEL

## O=C(O)COC(=O)Cc1ccccc1Nc1c(Cl)cccc1Cl [Aceclofenac]
[1]
  interleukin1b-induced prostaglandin E2 production: inhibits
[2]
  conversion into diclofenac: immediately upon dissolution in most of the solvents
[3]
  solubility in water: water insoluble
COX-I
  COX-I inhibitor effect: poor COX-I inhibitor effect

## O=C(O)Cc1ccccc1Nc1c(Cl)cccc1Cl [Diclofenac]
[4]
  retention of drug inside body: ≤ 8 h
Acute Lumbago patients
  modified Schober's test improvement: progressive improvements
[3]
  solubility in water: soluble in water
